Earlier results, collected in patent publication US20020058028A1, “METHOD OF IN SITU DIAGNOSIS BY SPECTROSCOPIC ANALYSIS OF BIOLOGICAL STAIN COMPOSITIONS” (priority 1999, published 2002).
Where two headings read alike, the source gives them in different places.

How the values were obtained:
Schistosoma mansoni = details: in vitro
Staphylococcus aureus = details: for active concentration against epidemic strains of methicillin-resistant Staphylococcus aureus: compared with vancomycin
[1] = system: human epidermoid carcinoma (A-253) cells
bladder carcinoma cells = details: in vitro; versus Azure C, Methylene violet, Thionin, methylene green, haematoporphyrin
solid Ehrlich carcinomas = details: mice; laser 647 nm and 676 nm
C. albicans [2] = details: energy dose 1.32 J at 2.04 J/cm2
[3] = system: microtubule cytoskeleton of cultured cells; details: untreated control cells normal
Trichoderma Viride = details: outside the body
[4] = system: local tumor recurrence in the area of the anastomosis
HeLa cells = details: for incubation time to saturation of uptake: 10(−5) M
[5] = system: several other Candida spp.
[6] = system: influenza or encephalomyelitis viruses; details: human blood plasma; plasma proteins not significantly altered
C. albicans [7] = details: conditions employed

CN(C)c1ccc2cc3ccc(N(C)C)cc3nc2c1 [acridine orange]
killing upon exposure to light (Schistosoma mansoni): kills

Cc1cc(=[N+](C)C)cc2sc3cc(N(C)C)cc(C)c3nc1-2.[Cl-] [dimethyl methylene blue]
active concentration against epidemic strains of methicillin-resistant Staphylococcus aureus (Staphylococcus aureus): lower than that of vancomycin | increase in bactericidal activity on illumination, typical (Staphylococcus aureus): ~4 fold

CCCCN1C(=O)C(=C/C=C/C=C2\Oc3ccccc3N2CCCS(=O)(=O)[O-])C(=O)N(CCCC)C1=S.[Na+] [merocyanine 540]
white light dose for ninety % reduction of clonogenicity [1]: 1.5 J/cm2

CN(C)c1ccc2nc3ccc(=[N+](C)C)cc-3sc2c1 [methylene blue]
phototoxicity compared with other dyes (bladder carcinoma cells): most phototoxic | tumor destruction (solid Ehrlich carcinomas): significant tumor destruction, including complete tumor destruction | tumor necrosis (small adenocarcinomas; 72 hours after PDT-treatment, proven experimentally): 4-5 mm | tumors destroyed (small adenocarcinomas; after the second PDT-treatment): 6 out of 10 | carcinomas with inhibited growth (small adenocarcinomas; after the treatment): Four | increase in bactericidal activity on illumination, typical (Staphylococcus aureus): ~4 fold | sensitization to killing by GaAs laser light (C. albicans [2]): able to sensitize | microtubule network after photodynamic treatment [3]: considerable or severe disorganization of the microtubule network | killing upon illumination (Trichoderma Viride): kill | killing upon exposure to light (Schistosoma mansoni): kills | local tumor growth in treated areas ([4]; after PDT-treatment): no local tumor growth within 6 months | complications during or after PDT ([4]; experimental or clinical): no experimental or clinical complications | incubation time to saturation of uptake (HeLa cells; HeLa cells): 6 h | cell photoinactivation, comparison (HeLa cells; HeLa cells): higher than that produced by TB | concentration at which dark damage was not observed (HeLa cells; HeLa cells, elevated photoinactivation detected at this concentration): 10(−5) M

CCNc1cc2[s+]c3cc(NCC)c(C)cc3nc2cc1C.[Cl-] [new methylene blue]
active concentration against epidemic strains of methicillin-resistant Staphylococcus aureus (Staphylococcus aureus): lower than that of vancomycin | increase in bactericidal activity on illumination, typical (Staphylococcus aureus): ~4 fold

Cc1cc2nc3ccc(N(C)C)cc3[s+]c2cc1N.[Cl-] [toluidine blue O, 3-amino-7-(dimethylamino)-2-methyl phenothiazin-5-ium chloride]
white light dose for ninety % reduction of clonogenicity [1]: 1.0 J/cm2 | sensitization to killing by HeNe laser light [5]: able to sensitize | ATP levels after photodynamic treatment (Kluyveromyces marxianus): lowered the ATP levels | enzyme inhibition after treatment with dye and light (Kluyveromyces marxianus): inhibition of alcohol dehydrogenase, cytochrome c oxidase, glyceraldehyde-3-phosphate dehydrogenase and hexokinase | clonogenicity (Kluyveromyces marxianus; photosensitizer with light): induce loss of clonogenicity | microtubule network after photodynamic treatment [3]: considerable or severe disorganization of the microtubule network | virus inactivation by light in presence of dye [6]: inactivated by light | concentration at which dark damage was not observed (HeLa cells): 10(−5) M | incubation time to saturation of uptake (HeLa cells; HeLa cells): 12 h

CN[C@H](CC(C)C)C(=O)N[C@H]1C(=O)N[C@@H](CC(N)=O)C(=O)N[C@H]2C(=O)N[C@H]3C(=O)N[C@H](C(=O)N[C@H](C(=O)O)c4cc(O)cc(O)c4-c4cc3ccc4O)[C@H](O)c3ccc(c(Cl)c3)Oc3cc2cc(c3O[C@@H]2O[C@H](CO)[C@@H](O)[C@H](O)[C@H]2O[C@H]2C[C@](C)(N)[C@H](O)[C@H](C)O2)Oc2ccc(cc2Cl)[C@H]1O [vancomycin]
concentration against epidemic strains of methicillin-resistant Staphylococcus aureus (Staphylococcus aureus; comparator): ≥ 0.5 µM

Dihaematoporphyrin ester
photosensitizer effectiveness (C. albicans [7]): not an effective photosensitizer

aluminum disulphonated phthalocyanine
sensitization to killing by GaAs laser light (C. albicans [2]): not

rhodamine 123
white light dose for ninety % reduction of clonogenicity [1]: 1.2 J/cm2
